Measurements published in ChEMBL document CHEMBL1201862, “PubChem BioAssay data set” (2004).
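Five compound concentrations were applied to cells in 96-well plates for 48 hours; endpoints were derived by simple linear interpolation of the resulting dose-response curve. GI50 is the concentration that inhibits growth by half.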 Activity calls are given as the source filed them. Cut-off read from the data, not from the text of the source: active = GI50 up to about 1.1 µM and inactive = higher.

What was measured:
Experiment in all cases: DTP human tumour cell line panel, 48 h
DMS-273 = test system: DMS-273
KM-20L2 = test system: KM-20L2
DMS-114 = test system: DMS-114
RXF 631 = test system: RXF 631
LXFL 529 = test system: LXFL 529
DLD-1 = test system: DLD-1
SNB-78 = test system: SNB-78
XF498 = test system: XF498
HOP-18 = test system: HOP-18

| SMILES | GI50 (DMS-273) | GI50 (KM-20L2) | GI50 (DMS-114) | GI50 (RXF 631) | GI50 (LXFL 529) | GI50 (DLD-1) | GI50 (SNB-78) | GI50 (XF498) | GI50 (HOP-18) |
| --- | --- | --- | --- | --- | --- | --- | --- | --- | --- |
| O=C(O)CCC(NC(=O)c1ccc(Nc2nc3ccccc3nc2-c2cccs2)cc1)C(=O)O (centres undefined) | > 100 µM (inactive) | > 100 µM (inactive) | > 100 µM (inactive) | > 100 µM (inactive) | > 100 µM (inactive) | > 100 µM (inactive) | > 100 µM (inactive) | > 100 µM (inactive) | > 100 µM (inactive) |
| O=C(NCc1ccccc1)c1cc2cc(O)c(O)cc2cn1 | 4.7 µM (inactive) | 29.4 µM (inactive) | 4.48 µM (inactive) |  | 16 µM (inactive) | 36.7 µM (inactive) | 50.5 µM (inactive) | 28.4 µM (inactive) | 13.8 µM (inactive) |
| Oc1ccc(O)c(-n2cccn2)c1-n1cccn1 | > 100 µM (inactive) | > 100 µM (inactive) | > 100 µM (inactive) |  | > 100 µM (inactive) | > 100 µM (inactive) | > 100 µM (inactive) | > 100 µM (inactive) |  |
| O=S(=O)(c1ccccc1)N1N=C2c3ccccc3CCC[C@H]2C1c1ccccc1 (some centres undefined) | > 100 µM (inactive) | > 100 µM (inactive) | > 100 µM (inactive) |  | > 100 µM (inactive) | > 100 µM (inactive) | > 100 µM (inactive) | > 100 µM (inactive) | > 100 µM (inactive) |
| NC(=S)N/N=C1/CN(c2ccc(Cl)c(Cl)c2)CC(=O)C1c1nc2ccccc2s1 (centres undefined) | > 100 µM (inactive) | > 100 µM (inactive) | 51.8 µM (inactive) |  | 37.8 µM (inactive) | > 100 µM (inactive) | > 100 µM (inactive) | > 100 µM (inactive) |  |
| CS(=O)(=O)OCCN(CCOS(C)(=O)=O)c1ccc(/C=N/c2ccc3oc(=O)ccc3c2)cc1 |  | 2.64 µM (inactive) | 0.714 µM (active) |  | 13.1 µM (inactive) |  | 2.12 µM (inactive) |  |  |
| CS(=O)(=O)c1ccc(-c2cc(-c3ccc(S(C)(=O)=O)cc3)[n+](-c3cc(-c4ccc(S(C)(=O)=O)cc4)c([O-])c(-c4ccc(S(C)(=O)=O)cc4)c3)c(-c3ccc(S(C)(=O)=O)cc3)c2)cc1 | > 100 µM (inactive) | > 100 µM (inactive) | > 100 µM (inactive) | > 100 µM (inactive) | > 100 µM (inactive) | > 100 µM (inactive) | > 100 µM (inactive) |  | > 100 µM (inactive) |
| O=C1Nc2ccc(Cl)c(I)c2C1=O | 16.5 µM (inactive) | 19.7 µM (inactive) | 17.5 µM (inactive) |  | 16.8 µM (inactive) | 16.9 µM (inactive) |  | 18.3 µM (inactive) |  |
| O=S1(=O)c2cc(S(=O)(=O)n3ccnc3)ccc2NC2=NCCCN21 |  | 22.3 µM (inactive) | 22.1 µM (inactive) |  | 31.5 µM (inactive) | 28.1 µM (inactive) |  |  | 42.2 µM (inactive) |
| ClC(Cl)=C1C(=C(Cl)Cl)C(Cl)(Cl)C1(Cl)Cl | 2.64 µM (inactive) | 4.41 µM (inactive) | 0.748 µM (active) | 3.21 µM (inactive) | 0.938 µM (active) | 1.22 µM (inactive) | 2.34 µM (inactive) | 9.2 µM (inactive) | 5.9 µM (inactive) |
| CC(C)(C)C(=O)Nc1cccc2oc(-c3ccccc3)cc12 | > 100 µM (inactive) | > 100 µM (inactive) | > 100 µM (inactive) | 47 µM (inactive) | 36.3 µM (inactive) | > 100 µM (inactive) | 14.1 µM (inactive) |  | > 100 µM (inactive) |
| CCOC(=O)C[C@@]12CCCN[C@]1(C)CCc1ccccc12 |  | > 100 µM (inactive) |  |  | > 100 µM (inactive) | > 100 µM (inactive) | > 100 µM (inactive) | > 100 µM (inactive) | > 100 µM (inactive) |
| CCN(CC)CCSc1c2ccccc2nc2c(OC)ccc(OC)c12 | 5.08 µM (inactive) | 3.39 µM (inactive) | 1.63 µM (inactive) | 2.93 µM (inactive) | 2.3 µM (inactive) | 1.99 µM (inactive) | 5.31 µM (inactive) | 2.42 µM (inactive) |  |
| O=C(O)CNS(=O)(=O)c1ccc(NC(=O)c2ccccc2[N+](=O)[O-])cc1 | > 100 µM (inactive) | > 100 µM (inactive) |  |  | > 100 µM (inactive) | > 100 µM (inactive) |  | > 100 µM (inactive) | > 100 µM (inactive) |
| N#CC(C#N)=C(C(C#N)C#N)C(C#N)C#N | > 100 µM (inactive) | > 100 µM (inactive) | > 100 µM (inactive) | > 100 µM (inactive) | > 100 µM (inactive) | > 100 µM (inactive) | > 100 µM (inactive) | > 100 µM (inactive) |  |
| CC1=CCCC(OC(N)=O)C1 (centres undefined) | > 100 µM (inactive) | > 100 µM (inactive) |  | > 100 µM (inactive) | > 100 µM (inactive) | > 100 µM (inactive) | > 100 µM (inactive) | > 100 µM (inactive) | > 100 µM (inactive) |
| C#CCN(N=O)C(=O)ON1C(=O)CCC1=O | > 100 µM (inactive) | > 100 µM (inactive) | > 100 µM (inactive) |  | > 100 µM (inactive) | > 100 µM (inactive) | > 100 µM (inactive) |  | > 100 µM (inactive) |
| CSc1nc(NC2OCC(OC(C)=O)C(OC(C)=O)C2OC(C)=O)c(/N=C\C=N\c2c(NC3OCC(OC(C)=O)C(OC(C)=O)C3OC(C)=O)nc(SC)[nH]c2=O)c(=O)[nH]1 (centres undefined) | > 100 µM (inactive) | > 100 µM (inactive) | > 100 µM (inactive) | 74 µM (inactive) | > 83.6 µM (inactive) | > 100 µM (inactive) | > 94.6 µM (inactive) |  | > 100 µM (inactive) |
| COc1ccc(/C=C(\Cl)c2ccc(OC)c(OC)c2)cc1OC | > 100 µM (inactive) | > 100 µM (inactive) | > 100 µM (inactive) |  | > 100 µM (inactive) | > 100 µM (inactive) |  |  |  |
| FC(F)(F)c1ccccc1/C=N/C12CC3CC(CC(C3)C1)C2 | > 100 µM (inactive) | > 100 µM (inactive) | > 100 µM (inactive) |  |  |  | > 100 µM (inactive) | > 100 µM (inactive) |  |
| CC1=C(C#N)C(=O)CC(c2ccc(Cl)cc2)N(C)N1 (centres undefined) |  |  | > 100 µM (inactive) |  | > 100 µM (inactive) | > 100 µM (inactive) | > 100 µM (inactive) | > 100 µM (inactive) | 24.4 µM (inactive) |
| Cc1ccccc1C(C#N)C(=O)C(=O)Nc1nc([N+](=O)[O-])cs1 (centres undefined) |  | > 100 µM (inactive) | > 100 µM (inactive) | > 100 µM (inactive) | > 100 µM (inactive) | > 100 µM (inactive) | > 100 µM (inactive) | > 100 µM (inactive) | > 100 µM (inactive) |
